Laboratory results published in patent US9156877B2, “17-hydroxy-17-pentafluorethyl-estra-4,9(10)-dien-11-benzylidene derivatives, methods for the production thereof and use thereof for treating diseases” (Bayer Intellectual Property GmbH, priority 2009, dated 2015).

Experiments:
[1] = target: T1, human progesterone receptor B (Homo sapiens, UniProt P06401); experiment: Progesterone receptor-antagonistic action in stably transfected SK-N-MC cells with MMTV-LUC reporter (PR-B); format: cell-based; details: antagonistic potency against 0.1 nmol/l promegestone, 24 hours, luciferase
T1 construct: expressed in transfected cells; host or cells: SK-N-MC human neuroblastoma cells, stably transfected with pRChPR-B-neo and pMMTV-LUC
T1 sequence (P06401 1-933): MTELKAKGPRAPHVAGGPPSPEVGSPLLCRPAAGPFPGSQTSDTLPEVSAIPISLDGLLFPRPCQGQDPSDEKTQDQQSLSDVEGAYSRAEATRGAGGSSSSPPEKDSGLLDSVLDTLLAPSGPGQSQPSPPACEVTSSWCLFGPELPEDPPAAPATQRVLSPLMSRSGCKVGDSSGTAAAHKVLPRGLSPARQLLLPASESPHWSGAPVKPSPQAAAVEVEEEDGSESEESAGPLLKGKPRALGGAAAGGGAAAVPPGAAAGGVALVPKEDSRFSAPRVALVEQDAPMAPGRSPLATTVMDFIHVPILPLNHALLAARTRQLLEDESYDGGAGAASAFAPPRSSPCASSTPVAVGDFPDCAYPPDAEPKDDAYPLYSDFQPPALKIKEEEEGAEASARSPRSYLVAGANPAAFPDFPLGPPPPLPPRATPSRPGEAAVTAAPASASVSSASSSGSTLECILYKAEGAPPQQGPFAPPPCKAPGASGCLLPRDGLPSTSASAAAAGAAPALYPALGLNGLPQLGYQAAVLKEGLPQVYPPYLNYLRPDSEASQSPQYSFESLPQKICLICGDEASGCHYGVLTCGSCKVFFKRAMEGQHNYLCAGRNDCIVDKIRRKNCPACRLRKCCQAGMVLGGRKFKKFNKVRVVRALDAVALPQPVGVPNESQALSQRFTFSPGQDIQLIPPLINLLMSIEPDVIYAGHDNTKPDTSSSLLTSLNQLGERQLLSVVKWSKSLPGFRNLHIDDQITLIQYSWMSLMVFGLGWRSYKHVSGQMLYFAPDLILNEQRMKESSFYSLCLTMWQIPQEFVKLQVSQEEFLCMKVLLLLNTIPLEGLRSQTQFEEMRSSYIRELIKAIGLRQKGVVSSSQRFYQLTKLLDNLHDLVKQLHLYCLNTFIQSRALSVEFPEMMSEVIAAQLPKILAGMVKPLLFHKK
Protocol: (§1) Determination of Progesterone Receptor-Antagonistic Action in Stable Transfectants of Human Neuroblastoma Cells (SK-N-MC Cells) with the Human Progesterone A or Progesterone B Receptor and an MN-LUC Reporter Construct
(§2) SK-N-MC cells (human neuroblastoma cells) which have been stably transfected with plasmids expressing the human progesterone receptor B (pRChPR-B-neo) or the human progesterone receptor A (pRChPR-A-neo) and a reporter construct (pMMTV-LUC) were incubated for 24 hours either in the absence (negative control) or in the presence of ascending amounts of the particular test compound (0.01 nmol/l, 0.1 nmol/l, 1 nmol/l, 10 nmol/l, 100 nmol/l and […]), in order to determine the agonistic efficacy. As a positive control of the reporter gene induction, the cells were treated with the synthetic gestagen promegestone (0.01 nmol/l, 0.1 nmol/l, 1 nmol/l, 10 nmol/l, 100 nmol/l and […]). To determine the antagonistic activity, the cells were treated with 0.1 nmol/l promegestone and additionally with ascending amounts of the particular test compound (0.01 nmol/l, 0.1 nmol/l, 1 nmol/l, 10 nmol/l, 100 nmol/l and […]). The activity of the reporter gene LUC (LUC=luciferase) was determined in the cell lysates and measured as RLU (relative light units). All measurements are reported as % efficacy and as EC50 and IC50 concentrations.

[2] = target: T2, human progesterone receptor A (Homo sapiens, UniProt P06401); experiment: Progesterone receptor-antagonistic action in stably transfected SK-N-MC cells with MMTV-LUC reporter (PR-A); format: cell-based; details: antagonistic potency against 0.1 nmol/l promegestone, 24 hours, luciferase
T2 construct: expressed in transfected cells; host or cells: SK-N-MC human neuroblastoma cells, stably transfected with pRChPR-A-neo and pMMTV-LUC
T2 sequence (P06401 1-769 isoform P06401-2): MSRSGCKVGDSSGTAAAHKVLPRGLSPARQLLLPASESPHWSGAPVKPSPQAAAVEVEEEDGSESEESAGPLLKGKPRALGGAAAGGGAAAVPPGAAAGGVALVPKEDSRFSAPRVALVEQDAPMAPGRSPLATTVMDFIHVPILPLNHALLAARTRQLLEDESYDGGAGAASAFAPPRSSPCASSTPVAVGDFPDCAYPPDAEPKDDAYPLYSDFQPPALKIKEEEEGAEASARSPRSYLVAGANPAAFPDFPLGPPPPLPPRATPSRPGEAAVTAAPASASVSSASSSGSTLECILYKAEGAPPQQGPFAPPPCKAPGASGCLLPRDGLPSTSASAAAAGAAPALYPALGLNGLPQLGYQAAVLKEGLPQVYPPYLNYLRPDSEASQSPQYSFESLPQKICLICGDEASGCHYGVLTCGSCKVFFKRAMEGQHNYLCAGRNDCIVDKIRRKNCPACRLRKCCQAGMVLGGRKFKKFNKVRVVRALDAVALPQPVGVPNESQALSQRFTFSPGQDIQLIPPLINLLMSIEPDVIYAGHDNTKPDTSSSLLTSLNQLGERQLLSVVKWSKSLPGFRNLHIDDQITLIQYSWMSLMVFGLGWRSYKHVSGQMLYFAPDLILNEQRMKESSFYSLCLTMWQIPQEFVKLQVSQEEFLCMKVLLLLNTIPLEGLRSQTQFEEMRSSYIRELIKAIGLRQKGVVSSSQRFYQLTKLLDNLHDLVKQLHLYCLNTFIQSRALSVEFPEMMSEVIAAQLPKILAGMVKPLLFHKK
Protocol: as §1, §2

IC50 [1] [nM]	IC50 [2] [nM]	SMILES
0.09	0.07	C[C@]12C[C@H](c3ccc(/C=C/CNC(=O)NCc4ccccc4)cc3)C3=C4CCC(=O)C=C4CC[C@H]3[C@@H]1CC[C@@]2(O)C(F)(F)C(F)(F)F [Example 46, 1-benzyl-3-{(E)-3-[4-((8S,11R,13S,14S,17S)-17-hydroxy-13-methyl-3-oxo-17-pentafluoroethyl-2,3,6,7,8,11,12,13,14,15,16,17-dodecahydro-1H-cyclopenta[a]phenanthren-11-yl)phenyl]allyl}urea]
0.1	0.09	C=CCNC(=O)NC/C=C/c1ccc([C@H]2C[C@@]3(C)[C@@H](CC[C@@]3(O)C(F)(F)C(F)(F)F)[C@@H]3CCC4=CC(=O)CCC4=C32)cc1 [Example 57, 1-allyl-3-{(E)-3-[4-((8S,11R,13S,14S,17S)-17-hydroxy-13-methyl-3-oxo-17-pentafluoroethyl-2,3,6,7,8,11,12,13,14,15,16,17-dodecahydro-1H-cyclopenta[a]phenanthren-11-yl)phenyl]allyl}urea]
	0.1	C[C@]12C[C@H](c3ccc(/C=C/CNC(=O)Nc4ccccc4)cc3)C3=C4CCC(=O)C=C4CC[C@H]3[C@@H]1CC[C@@]2(O)C(F)(F)C(F)(F)F [Example 42, 1-{(E)-3-[4-((8S,11R,13S,14S,17S)-17-hydroxy-13-methyl-3-oxo-17-pentafluoroethyl-2,3,6,7,8,11,12,13,14,15,16,17-dodecahydro-1H-cyclopenta[a]phenanthren-11-yl)phenyl]allyl}-3-phenylurea]
0.1	0.1	CC(C)(C)NC(=O)NC/C=C/c1ccc([C@H]2C[C@@]3(C)C(CC[C@@]3(O)C(F)(F)C(F)(F)F)C3CCC4=CC(=O)CCC4=C32)cc1 (stereo partly shown) [Example 41]
0.1	0.1	CCOC(=O)CNC(=O)NC/C=C/c1ccc([C@H]2C[C@@]3(C)C(CC[C@@]3(O)C(F)(F)C(F)(F)F)C3CCC4=CC(=O)CCC4=C32)cc1 (stereo partly drawn) [Example 51, 3-(3-{(E)-3-[4-((8S,11R,13S,14S,17S)-17-hydroxy-13-methyl-3-oxo-17-pentafluoroethyl-2,3,6,7,8,11,12,13,14,15,16,17-dodecahydro-1H-cyclopenta[a]phenanthren-11-yl)phenyl]allyl}ureido)acetic acid ethyl ester]
0.09	0.1	C[C@]12C[C@H](c3ccc(C=NOCc4ccccc4)cc3)C3=C4CCC(=O)C=C4CC[C@H]3[C@@H]1CC[C@@]2(O)C(F)(F)C(F)(F)F [Example 35, 4-((8S,11R,13S,14S,17S)-17-hydroxy-13-methyl-3-oxo-17-pentafluoroethyl-2,3,6,7,8,11,12,13,14,15,16,17-dodecahydro-1H-cyclopenta[a]phenanthren-11-yl)benzaldehyde O-benzyl oxime]
	0.1	COc1ccc(NC(=O)NC/C=C/c2ccc([C@H]3C[C@@]4(C)[C@@H](CC[C@@]4(O)C(F)(F)C(F)(F)F)[C@@H]4CCC5=CC(=O)CCC5=C43)cc2)cc1 [Example 54, 1-{(E)-3-[4-((8S,11R,13S,14S,17S)-17-hydroxy-13-methyl-3-oxo-17-pentafluoroethyl-2,3,6,7,8,11,12,13,14,15,16,17-dodecahydro-1H-cyclopenta[a]phenanthren-11-yl)phenyl]allyl}-3-(4-methoxyphenyl)urea]

Further lines, the compound ahead of its results:

SMILES	IC50 [1] [nM]	IC50 [2] [nM]
C=C(C)c1cccc([C@H]2C[C@@]3(C)[C@@H](CC[C@@]3(O)C(F)(F)C(F)(F)F)[C@@H]3CCC4=CC(=O)CCC4=C32)c1 [Example 20, (8S,11R,13S,14S,17S)-17-hydroxy-11-(3-isopropenylphenyl)-13-methyl-17-pentafluoroethyl-1,2,6,7,8,11,12,13,14,15,16,17-dodecahydrocyclopenta[a]phenanthren-3-one]	11	9
CSc1ccc(/C=C/c2ccc([C@H]3C[C@@]4(C)[C@@H](CC[C@@]4(O)C(F)(F)C(F)(F)F)[C@@H]4CCC5=CC(=O)CCC5=C43)cc2)cc1 [Example 33, (8S,11R,13S,14S,17S)-17-hydroxy-13-methyl-11-{4-[(E)-2-(4-methylsulphanylphenyl)vinyl]phenyl}-17-pentafluoroethyl-1,2,6,7,8,11,12,13,14,15,16,17-dodecahydrocyclopenta[a]phenanthren-3-one]	0.8	0.1
CCOC(=O)CCNC(=O)NC/C=C/c1ccc([C@H]2C[C@@]3(C)C(CC[C@@]3(O)C(F)(F)C(F)(F)F)C3CCC4=CC(=O)CCC4=C32)cc1 (stereo partly drawn) [Example 49, (3-{(E)-3-[4-((8S,11R,13S,14S,17S)-17-hydroxy-13-methyl-3-oxo-17-pentafluoroethyl-2,3,6,7,8,11,12,13,14,15,16,17-dodecahydro-1H-cyclopenta[a]phenanthren-11-yl)phenyl]allyl}ureido)propionic acid ethyl ester]	0.3	0.1
C[C@]12C[C@H](c3ccc(/C=C/CNC(=O)Nc4ccc(N5CCCCC5)cc4)cc3)C3=C4CCC(=O)C=C4CC[C@H]3[C@@H]1CC[C@@]2(O)C(F)(F)C(F)(F)F [Example 58, 1-{(E)-3-[4-((8S,11R,13S,14S,17S)-17-hydroxy-13-methyl-3-oxo-17-pentafluoroethyl-2,3,6,7,8,11,12,13,14,15,16,17-dodecahydro-1H-cyclopenta[a]phenanthren-11-yl)phenyl]allyl}-3-(4-piperidin-1-ylphenyl)urea]		0.5
COC(=O)C(C/C=C/c1ccc([C@H]2C[C@@]3(C)[C@@H](CC[C@@]3(O)C(F)(F)C(F)(F)F)[C@@H]3CCC4=CC(=O)CCC4=C32)cc1)C(=O)OC [Example 4, 2-{(E)-3-[4-((8S,11R,13S,14S,17S)-17-hydroxy-13-methyl-3-oxo-17-pentafluoroethyl-2,3,6,7,8,11,12,13,14,15,16,17-dodecahydro-1H-cyclopenta[a]phenanthren-11-yl)phenyl]allyl}malonic acid dimethyl ester]	1.1	1
C=C(C)c1ccc([C@H]2C[C@@]3(C)[C@@H](CC[C@@]3(O)C(F)(F)C(F)(F)F)[C@@H]3CCC4=CC(=O)CCC4=C32)cc1 [Example 11, (8S,11R,13S,14S,17S)-17-hydroxy-11-(4-isopropenylphenyl)-13-methyl-17-pentafluoroethyl-1,2,6,7,8,11,12,13,14,15,16,17-dodecahydrocyclopenta[a]phenanthren-3-one]	0.012	
